{
  "source": "patent US12629375B2",
  "about": "“Compounds with anti-tumor activity against cancer cells bearing HER2 exon 21 insertions” (Board of Regents, The University of Texas System, priority 2019, dated 2026)",
  "key": {"[1]": {"system": "HER2 Y772dupYVMA NSCLC PDX", "test": "HER2 Y772dupYVMA NSCLC PDX model", "format": "in vivo, NSG mice", "protocol": "Y772dupYVMA PDX mice were purchased from Jax Labs (Model #TM01446). Fragments from tumors expressing HER2 Y772dupYVMA were inoculated into 5- to 6-week old female NSG mice (Jax Labs #005557). Mice were measured three times per week, and when tumors reached a volume of 200-300 mm^3 mice were randomized into four treatment groups: vehicle control (0.5% Methylcellulose, 0.05% Tween-80 in dH2O), 2.5 mg/kg poziotinib, 10 mg/kg T-DM1, or combination of 2.5 mg/kg poziotinib and 10 mg/kg T-DM1. Tumor volumes and body weight were measured three times per week. Mice treated with 2.5 mg/kg poziotinib received drug orally Monday-Friday (5 days per week). Mice treated with 10 mg/kg T-DM1 received one intravenous (IV) dose of T-DM1 on the day of randomization. Mice treated with combination poziotinib and T-DM1 received one IV dose of T-DM1 and began 2.5 mg/kg poziotinib five days per week, 3 days after the dose of T-DM1. Mice received a holiday from dosing if the mouse dropped in body weight by greater than 10% or if body weight dropped below 20 grams. Progression free survival was defined as tumor doubling from best response for two consecutive measurements. Complete regression was defined as greater than 95% reduction in tumor burden, and for mice with complete regression, tumor doubling was defined greater than 75 mm^3 for more than two consecutive measurements. Experiments were completed in agreement with Good Animal Practices and with approval from MD Anderson Cancer Center Institutional Animal Care and Use Committee (Houston, TX)."}, "[2]": {"system": "MCF10A cells expressing HER2 G776del insVC", "test": "MCF10A cell viability, HER2 G776del insVC", "format": "cell-based", "conditions": "Homo sapiens, MCF-10A, 72 hours", "protocol": "(§1) Cell Viability Assay and IC50 Estimation: Cell viability was determined using the Cell Titer Glo assay (Promega) as previously described (Robichaux et al., 2018). Briefly, 2000-3000 cells per well were plated in 384-well plates (Greiner Bio-One) in technical triplicate. Cells were treated with seven different concentrations of tyrosine kinase inhibitors or vehicle alone at a final volume of 40 μL per well. After 3 days, 11μL of Cell Titer Glo was added to each well. Plates were shaken for 15 minutes, and bioluminescence was determined using a FLUOstar OPTIMA multi-mode micro-plate reader (BMG LABTECH). Bioluminescence values were normalized to DMSO treated cells, and normalized values were plotted in GraphPad Prism using non-linear regression fit to normalized data with a variable slope. IC50 values were calculated by GraphPad Prism at 50% inhibition.\nHuman Cell lines: MCF10A cells were purchased from ATCC and were cultured in DMEM/F12 media supplemented with 1% penicillin/streptomycin, 5% horse serum (sigma), 20 ng/ml EGF, […] hydrocortisone, and 10 μg/ml insulin. Stable cell lines were created by retroviral transduction, and retroviruses were generated by transfecting pBabe-Puro based vectors summarized in Table 1 (Addgene and Bioinnovatise) into Phoenix 293T-ampho cells (Orbigen) using Lipofectamine 2000 (Invitrogen). […]"}, "[3]": {"system": "MCF10A HER2 mutant cell lines", "test": "MCF10A cell viability, HER2 exon 20 mutant cell lines together (average, selectivity vs HER2 WT, T-DM1 combination)", "format": "cell-based, human", "protocol": "as §1, with “Briefly,” for “Cell Viability Assay and IC50 Estimation: Cell viability was determined using the Cell Titer Glo assay (Promega) as previously described (Robichaux et al., 2018). Briefly,”, “slope.” for “slope. IC50 values were calculated by GraphPad Prism at 50% inhibition.”\nHuman Cell lines: MCF10A cells were purchased from ATCC and were cultured in DMEM/F12 media supplemented with 1% penicillin/streptomycin, 5% horse serum (sigma), 20 ng/ml EGF, […] hydrocortisone, and 10 μg/ml insulin. […] Two days after transduction, 0.5 μg/ml puromycin (Invitrogen) was added to the RPMI media. […] CW-2 cells were provided by the Riken cell line database under MTA, and were maintained in RPMI containing 10% FBS and 1% penicillin/streptomycin."}, "[4]": {"system": "p-HER2", "test": "Western blot of p-HER2 in MCF10A HER2 G776delinsVC cells", "format": "cell-based, human", "conditions": "10 nM, 2 hours treatment", "protocol": "Western Blotting: For Western blotting, cells were washed in PBS and lysed in RIPPA lysis buffer (ThermoFisher) and protease inhibitor cocktail tablets (Roche). Protein (30-40 μg) was loaded into gels purchased from BioRad. BioRad semi-dry transfer was used and then probed with antibodies against, pHER2, HER2, pPI3K, PI3K, p-AKT, AKT, p-ERK1/2, and ERK1/2 (1:1000; Cell Signaling). Blots were probed with antibodies against vinculin or β-actin (Sigma-Aldrich) as a loading control, and exposed using ECL Western Blotting substrate (Promega)."}, "[5]": {"conditions": "MCF10A HER2 exon 20 mutants, ratio of average IC50"}},
  "data": [
    {"smiles": "C=CC(=O)N1CCC(Oc2cc3c(Nc4ccc(Cl)c(Cl)c4F)ncnc3cc2OC)CC1", "note": "[poziotinib, 1-[4-[4-(3,4-dichloro-2-fluoroanilino)-7-methoxyquinazolin-6-yl]oxypiperidin-1-yl]prop-2-en-1-one]", "values": [
      {"measurement": "mice with complete tumor regression", "setting": "[1]; day 15 (best response), poziotinib 2.5 mg/kg, T-DM1 10 mg/kg single dose", "result": "0/12"},
      {"measurement": "median PFS (mPFS), time to tumor doubling from best response", "setting": "[1]; poziotinib 2.5 mg/kg 5 days per week, T-DM1 10 mg/kg single IV dose", "result": 15, "unit": "days"},
      {"measurement": "IC50", "setting": "[2]", "result": 12, "unit": "nM"},
      {"measurement": "times more potent than neratinib", "setting": "[3]; [5]", "result": 19, "unit": "times"},
      {"measurement": "times more potent than tarloxotinib-TKI", "setting": "[3]; [5]", "result": 2.6, "unit": "times"},
      {"measurement": "selectivity index (SI, IC50 value mutant/IC50 value WT)", "setting": "[3]; MCF10A HER2 mutant vs HER2 WT cell lines", "result": 0.028},
      {"measurement": "inhibition of p-HER2", "setting": "[4]", "result": "completely inhibits"}
    ]}
  ]
}
